# Results reported in ChEMBL document CHEMBL3526149, “Brain tissue binding of drugs: evaluation and validation of solid supported porcine brain membrane vesicles (TRANSIL) as a novel high-throughput method” (Drug Metab Dispos, 2011).
# How the values were obtained:
# [1] = Percentage unbound in solid supported porcine brain membrane vesicles at 5 uM by TRANSIL assay; settings: pig
# Albumin = Albumin (Rattus norvegicus, UniProt P02770); assay: Binding affinity to Wistar rat serum albumin; assay type: ADME
# [2] = Binding affinity to Wistar rat brain lipid assessed as percentage unbound by TRANSIL assay; assay type: ADME, tissue-based
# [3] = Binding affinity to Wistar rat brain lipid by TRANSIL assay; assay type: ADME
# [4] = Fraction unbound in Wistar rat brain homogenate at 5 uM after 5 hrs by equilibrium dialysis method
# [5] = Ratio of fraction unbound in Wistar rat brain homogenate at 5 uM after 5 hrs by equilibrium dialysis method to fraction unbound in solid supported porcine brain membrane vesicles at 5 uM by TRANSIL assay
# [6] = Percentage unbound in solid supported porcine brain membrane vesicles at 5 uM using four compound cocktail after 5 hrs by TRANSIL assay; assay type: ADME, tissue-based, Sus scrofa; settings: pig
# [7] = Ratio, ratio of fraction unbound in solid supported porcine brain membrane vesicles at 5 uM dosed as discrete compounds after 5 hrs by TRANSIL assay to fraction unbound in solid supported porcine brain membrane vesicles at 5 uM using four compound cocktail after 5 hrs by TRANSIL assay; assay type: ADME, Sus scrofa; settings: pig
# [8] = Ratio of fraction unbound in solid supported porcine brain membrane vesicles at 5 uM by TRANSIL assay to fraction unbound in Wistar rat brain homogenate at 5 uM after 5 hrs by equilibrium dialysis method; assay type: ADME, tissue-based
# [9] = solid supported porcine brain membrane vesicles
# Albumin, sequence (P02770 whole entry): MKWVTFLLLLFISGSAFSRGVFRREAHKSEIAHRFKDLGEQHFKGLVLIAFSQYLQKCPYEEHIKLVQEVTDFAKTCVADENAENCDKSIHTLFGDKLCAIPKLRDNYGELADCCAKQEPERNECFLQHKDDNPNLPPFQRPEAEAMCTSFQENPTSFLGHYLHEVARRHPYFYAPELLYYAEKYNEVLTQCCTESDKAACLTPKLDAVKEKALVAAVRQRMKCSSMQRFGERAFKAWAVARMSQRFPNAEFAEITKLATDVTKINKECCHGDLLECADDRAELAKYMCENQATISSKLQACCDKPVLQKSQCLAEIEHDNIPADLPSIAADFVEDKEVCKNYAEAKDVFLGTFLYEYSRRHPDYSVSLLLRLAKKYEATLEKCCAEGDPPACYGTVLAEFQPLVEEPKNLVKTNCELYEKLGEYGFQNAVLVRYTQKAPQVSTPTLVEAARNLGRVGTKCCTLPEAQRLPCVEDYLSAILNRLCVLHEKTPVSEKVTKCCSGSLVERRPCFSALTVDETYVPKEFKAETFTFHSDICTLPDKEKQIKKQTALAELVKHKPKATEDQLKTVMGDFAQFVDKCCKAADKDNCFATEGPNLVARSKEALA
Structure (SMILES),fraction unbound at 5 µM ([1]; Brain),Kd (Albumin) [µM],fraction unbound [2],Kd [3] [µM],"fraction unbound at 5 h, 5 µM [4]","fraction unbound at 5 µM [1, 9]",Ratio [5],"fraction unbound at 5 h, 5 µM [6]",Ratio ([7]; in vitro),Ratio [8],Ratio [7]
Cc1nc2n(c(=O)c1CCN1CCC(c3noc4cc(F)ccc34)CC1)CCCC2 [RISPERIDONE],0.057,43.8,0.121,–,–,–,–,–,–,–,–
O=c1n(CCCN2CCN(c3cccc(Cl)c3)CC2)nc2ccccn12 [TRAZODONE],–,7.95,0.0437,5.47,0.055,0.057,1,–,–,–,–
CN1CCN(C2=Nc3cc(Cl)ccc3Nc3ccccc32)CC1 [CLOZAPINE],0.0072,78.8,0.0064,0.775,0.011,–,1.5,0.0092,0.8,–,–
CN(C)CCCN1c2ccccc2Sc2ccc(Cl)cc21 [CHLORPROMAZINE],0.0022,–,0.0015,0.184,0.002,–,–,–,–,–,–
CN1CCN(CCCN2c3ccccc3Sc3ccc(C(F)(F)F)cc32)CC1 [TRIFLUOPERAZINE],0.0018,–,0.0033,0.392,0.0007,–,–,–,–,–,–
NC(=O)N1c2ccccc2C=Cc2ccccc21 [CARBAMAZEPINE],0.132,–,0.168,24.2,0.119,–,–,0.26,–,–,–
Fc1ccc([C@@H]2CCNC[C@H]2COc2ccc3c(c2)OCO3)cc1 [PAROXETINE],0.0026,–,–,–,0.0039,–,1.5,–,–,–,–
CNCCC=C1c2ccccc2CCc2ccccc21 [NORTRIPTYLINE],0.004,–,–,–,0.0046,–,1.2,–,–,–,–
Cn1c(=O)c2c(ncn2C)n(C)c1=O [CAFFEINE],0.26,–,–,–,0.52,–,2,–,–,–,–
CCCC(C)(COC(N)=O)COC(=O)NC(C)C (stereo not drawn) [CARISOPRODOL],–,–,–,–,0.202,0.295,–,–,–,1.5,–
CN(C)CCC=C1c2ccccc2CCc2ccccc21 [AMITRIPTYLINE],–,134,0.0083,1.01,0.009,0.0073,1.2,0.0071,1,–,–
OCCOCCN1CCN(C(c2ccccc2)c2ccc(Cl)cc2)CC1 (stereo not drawn) [HYDROXYZINE],0.021,–,–,–,0.0102,–,–,–,–,2.1,–
CC(C)Cc1ccc(C(C)C(=O)O)cc1 (stereo not drawn) [IBUPROFEN],–,–,–,52.7,–,–,–,–,–,–,–
CC(=O)CC(c1ccccc1)c1c(O)c2ccccc2oc1=O (stereo not drawn) [WARFARIN],–,–,0.405,81.4,–,–,–,–,–,–,–
CN(C)CCC=C1c2ccccc2C=Cc2ccccc21 [CYCLOBENZAPRINE],0.01,–,–,–,0.0073,–,–,–,–,1.4,–
CNCCC(Oc1ccc(C(F)(F)F)cc1)c1ccccc1 (stereo not drawn) [FLUOXETINE],–,36.1,0.0027,0.323,0.004,0.003,1.3,–,–,–,–
CC(NC(C)(C)C)C(=O)c1cccc(Cl)c1 (stereo not drawn) [BUPROPION],–,–,–,–,0.17,0.17,1,0.14,–,–,1.2
O=C1NC(=O)C(c2ccccc2)(c2ccccc2)N1 [PHENYTOIN],0.047,–,–,–,0.081,–,1.7,–,–,–,–
Cc1ncc2n1-c1ccc(Cl)cc1C(c1ccccc1F)=NC2 [MIDAZOLAM],0.041,–,–,–,0.023,–,–,0.037,–,1.8,1.1
CCN(CC)CCNC(=O)c1cc(Cl)c(N)cc1OC [METOCLOPRAMIDE],0.295,–,0.426,88.9,0.36,–,–,–,–,–,–
O=C(CCCN1CCC(O)(c2ccc(Cl)cc2)CC1)c1ccc(F)cc1 [HALOPERIDOL],0.014,96.9,0.0129,1.56,0.011,–,–,0.014,1,1.3,–
CCCCN1CCCCC1C(=O)Nc1c(C)cccc1C (stereo not drawn) [BUPIVACAINE],–,–,–,–,0.278,0.17,1.6,0.19,0.9,–,–
CC(C)NCC(O)COc1cccc2ccccc12 (stereo not drawn) [PROPRANOLOL],–,–,–,–,0.03,0.02,1.5,0.02,1,–,–
COc1ccc(C(CN(C)C)C2(O)CCCCC2)cc1 (stereo not drawn) [VENLAFAXINE],0.123,–,0.242,38.2,0.21,–,–,–,–,–,–
CCN1CCCC1CNC(=O)c1cc(S(N)(=O)=O)ccc1OC (stereo not drawn) [SULPIRIDE],0.24,–,–,–,0.63,–,2.6,–,–,–,–
CSc1ccc2c(c1)N(CCC1CCCCN1C)c1ccccc1S2 (stereo not drawn) [THIORIDAZINE],0.0003,6.69,0.0031,0.369,0.001,–,3.3,–,–,–,–
